# Activity calls are given as the source filed them.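 How the source made its calls: active means fitted concentration giving half of the maximal binding block below 66 µM; inactive means the rest.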
# Biological target: anti-desmoglein 3 scFv antibody binding to human desmoglein 3 (DSG3)
# Experiment: blockers of pemphigus antibody–desmoglein 3 interaction – biochemical, DSG3-coupled beads, scFv-GFP, flow cytometry, Cherry Pick 1, dose response (AID 602251);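 on binding response, lower = inhibition: 100% = DMSO vehicle binding and 0% = soluble DSG3 blocking control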
# Conditions: for binding response, lower = inhibition: at 66.1 µM (top of the series)
Structure (SMILES),"binding response, lower = inhibition",EC50 [µM]
COc1ccc(NC(=O)c2ccc3c(c2)S(=O)(=O)c2ccccc2C3=O)cc1,inactive,
COc1ccc(-c2cn3c(C)c(C(=O)Nc4cccc(NC(C)=O)c4)sc3n2)cc1,inactive,
O=C(CSc1nnc(Cc2ccccc2)o1)N1CCc2ccccc21,inactive,
COc1ccc(NC(=O)c2cc(-c3ccc(C)o3)nc3ccccc23)cc1OC,inactive,
O=[N+]([O-])c1ccc(NCCNc2ccc([N+](=O)[O-])cc2)cc1,inactive,
COC(=O)c1sc(NC(=O)c2cc(-c3ccccc3)nc3ccccc23)c(C#N)c1C,inactive,
CCc1nnc(NC(=O)CSc2nncc(=O)n2N)s1,,55
COc1ccc(NC(=O)c2cc(-c3ccco3)nc3ccccc23)cc1,inactive,
CSCCC(NC(=O)C12CC3CC(CC(C3)C1)C2)C(=O)OCC(=O)c1ccc(C)cc1 (stereo not given),inactive,
CCC(C)n1cnc2c(c1=O)c1nc3ccccc3nc1n2-c1ccc2c(c1)OCCO2 (stereo not given),inactive,
COc1ccc2cc(-c3cc(C(=O)OCC(=O)NC4CCS(=O)(=O)C4)c4ccccc4n3)ccc2c1 (stereo not given),,19.2
O=C(Nc1ccc(S(=O)(=O)NCc2ccccc2)cc1)C1CCCCC1,inactive,
O=C(O)C1Nc2c(O)cc(Cl)c([N+](=O)[O-])c2C2C=CCC12 (stereo not given),,27.7
CCOC(=O)c1cn(-c2ccc([N+](=O)[O-])cc2)c2cc(Cl)c([N+](=O)[O-])cc2c1=O,inactive,
O=C(O)c1cccc(-n2cccc2/C=C2/NC(=O)N(c3ccc(Cl)cc3)C2=O)c1,,11.7
COc1ccc(NC(=O)c2ccc3c(c2)C(=O)N(Cc2ccncc2)C3=O)cc1S(N)(=O)=O,inactive,
CCOC(=O)CN1C(=O)/C(=C/c2ccccc2Br)Oc2ccccc21,inactive,
Cc1ccc(-n2ncc3c(=O)[nH]c(SCC(=O)N4CCN(c5ccccc5)CC4)nc32)cc1,inactive,
C=CCn1c(O)c(C2=c3ccccc3=NC2=O)s/c1=N/c1nccs1,,39.6
CCOc1ccc2c(ccc(/C=C/c3cc(C)c4cccnc4c3O)[n+]2C)c1,,1.08
CCOc1ccc2nc(NC(=O)c3ccc(S(=O)(=O)N4CCOCC4)cc3)sc2c1,inactive,
COc1cccc2c1NC(C(=O)O)C1CC=CC21 (stereo not given),,32.1
COc1cc(C(C(=O)NC2CCCCC2)N(CCN2CCOCC2)C(=O)C2COc3ccccc3O2)cc(OC)c1OC (stereo not given),inactive,
Cc1ccsc1-c1nc(-c2ccccc2)c(-c2ccccc2)[nH]1,inactive,
N#Cc1cn(-c2ccccc2)nc1-c1ccc2c(c1)OCCO2,inactive,
COc1ccc(NC(=O)Cn2nnc(C(=O)NCc3ccccc3)c2N)cc1Cl,inactive,
CCOc1ccc(-n2nc3ccc(NC(=O)c4ccc5c(c4)OCCO5)cc3n2)cc1,inactive,

Structure (SMILES),"binding response, lower = inhibition",EC50 [µM]
CCC(CC)C(=O)Nc1cccc(S(=O)(=O)c2cccc(NC(=O)C(CC)CC)c2)c1,,55
COc1cc(OC)cc(N(C(=O)C2COc3ccccc3O2)C(C(=O)NC2CCCCC2)c2ccc(O)cc2)c1 (stereo not given),inactive,
Nc1cc(-c2ccc(Br)cc2)nn1S(=O)(=O)c1ccccc1,inactive,
COc1ccc(Cl)cc1NC(=O)CSc1nc(NS(=O)(=O)c2ccc(C)cc2)cc(=O)[nH]1,inactive,
C=CCSc1nc(N)c(C#N)c(-c2ccccc2)c1C#N,inactive,
COc1ccc(NC(=O)c2ccc3c(c2)C(=O)N(Cc2cccnc2)C3=O)c(OC)c1,inactive,
O=C(Nc1ccc2c(c1)OCO2)C1CCN(c2ccc(S(=O)(=O)N3CCOCC3)cc2)CC1,inactive,
O=C1c2ccc(-c3ccc(F)cc3OCc3ccccc3)cc2S(=O)(=O)c2cccc(C(=O)N3CCN(c4ncc(Br)cn4)CC3)c21,inactive,
O=C1NN(c2cccc(Br)c2)C(=O)/C1=C/c1ccc(-c2cc([N+](=O)[O-])ccc2O)o1,inactive,
O=C1OC(COc2ccc(Br)cc2)CN1c1ccccc1 (stereo not given),inactive,
COc1ccc(NC(=O)c2ccc3c(c2)C(=O)N(Cc2cccnc2)C3=O)cc1,inactive,
O=C(Nc1nc2cc3c(cc2s1)OCCO3)c1ccc(N2C(=O)CCC2=O)cc1,inactive,
CCCCN1C=C(C(=O)OC)C(c2ccccc2C(F)(F)F)C(C(=O)OC)=C1,inactive,
CCOC(=O)C1=C(N)n2c(s/c(=C\c3cccnc3)c2=O)=C(C(=O)OC)C1c1cccnc1 (stereo not given),inactive,
CCCNC(=O)c1c(N)n(-c2ccc(S(N)(=O)=O)cc2)c2nc3ccccc3nc12,inactive,
CCc1nnc(NC(=O)CSc2ncnc3c2oc2ccccc23)s1,inactive,
COc1ccccc1CNC(=O)COC(=O)c1ccc(S(=O)(=O)N2CCCC2)cc1,inactive,
CCOc1ccc(S(=O)(=O)N2CCN(C(=O)c3ccccc3Cc3ccccc3)CC2)cc1,inactive,
COc1ccc(-n2c(SCC(=O)Nc3nccs3)nnc2-c2ccc(Cl)cc2)cc1,,28.1
Cc1cc(SCC(=O)Nc2ccc3[nH]c(=O)[nH]c3c2)nc2ccccc12,inactive,
COCCCNC(=O)c1c(N)n(-c2ccc(S(N)(=O)=O)cc2)c2nc3ccccc3nc12,,25.6
COCCn1c(=NC(=O)CCS(=O)(=O)c2ccccc2)sc2cc(C(=O)OC)ccc21,,25.4
O=C(Nc1ccc(N2CCOCC2)cc1)c1ccc2nc(-c3ccco3)c(-c3ccco3)nc2c1,,25.4
CC(C)(C)NS(=O)(=O)c1ccc(NC(=O)c2cc(-c3ccccc3)nc3ccccc23)cc1,inactive,
CN(C(=O)CSc1nc2cc([N+](=O)[O-])ccc2n1-c1ccc(F)cc1)C1CCS(=O)(=O)C1 (stereo not given),inactive,
NC(=O)c1ccsc1NC(=O)COC(=O)c1cc(=O)[nH]c2ccccc12,,30.2
Nn1c(SCC(=O)Nc2cc(C(F)(F)F)ccc2Cl)nncc1=O,,29.6

Structure (SMILES),"binding response, lower = inhibition",EC50 [µM]
COc1ccc(N2CCN(C(=O)c3sc4nc(-c5ccc(F)cc5)cn4c3C)CC2)cc1,inactive,
Cc1ccc(NC(=O)c2sc(N)nc2-c2ccc([N+](=O)[O-])cc2)cc1C,inactive,
Cc1ccc(CSc2nnc(Nc3ccc(C)cc3)s2)cc1,inactive,
CCCCN(C)CCNC(=O)c1cc(-c2cccnc2)nc2ccc(S(=O)(=O)N3CCC(C)CC3)cc12,inactive,
Nc1c(C(=O)c2ccccc2)oc2ccc([N+](=O)[O-])cc12,inactive,
O=C(c1cc2cc3ccc(Cl)cc3nc2o1)N1CCN(Cc2ccc3c(c2)OCO3)CC1,inactive,
N=c1oc2ccc3ccccc3c2cc1C(N)=S,inactive,
CCOC(=O)c1cc(-c2ccc(/C=C3/C(=O)N(c4ccc(C(=O)O)cc4)N=C3C)o2)ccc1Cl,inactive,
Clc1ccc2nc(CSc3nnc(-c4c[nH]c5ccccc45)o3)cn2c1,,24.8
CCOc1ccc(N(CC(=O)NCCSCc2ccco2)S(=O)(=O)c2ccc(C)cc2)cc1,inactive,
CC(=O)c1c(C)n(-c2ccc(Cl)cc2)c2ccc(O)cc12,inactive,
CCOC(=O)Cn1c(=NC(=O)c2cccs2)sc2cc(C(=O)OC)ccc21,,26
O=C(CSc1ccc(Cl)cc1)Nc1cccc(-c2nc3ccccc3[nH]2)c1,,59.2
Cc1nnc2ccc(-c3ccc(NS(=O)(=O)c4ccccc4)cc3)nn12,inactive,
Cc1ccc(O)c(NC(=O)CSc2ccc(Cl)cc2)c1,inactive,
COc1ccccc1CNC(=O)COC(=O)c1ccc(S(=O)(=O)N2CCCCC2)cc1,inactive,
Cc1ccc(O)c(NC(=O)c2ccc3c(c2)C(=O)N(Cc2cccnc2)C3=O)c1,inactive,
COc1ccc(O)c(/C=N/n2c(-c3ccco3)csc2=Nc2cccnc2)c1,inactive,
CCCn1c(C)nc2c(c1=O)c1nc3ccccc3nc1n2-c1ccccc1,inactive,
COc1ccccc1NS(=O)(=O)c1cccc(NC(=O)c2cc3ccccc3oc2=O)c1,inactive,
CCCCOC(=O)Nc1sc2nc(C)cc(C)c2c1-n1cccc1,,41.9
C=CCn1c(SCC(=O)N2CCN(c3ccccc3)CC2)nc2c([nH]c3ccccc32)c1=O,,50.9
O=C(Nc1ccc(Nc2ccccc2)cc1)c1ccc(Br)cc1,inactive,
O=C(NCCN1C(=O)S/C(=C\c2ccc(Cl)c(Cl)c2)C1=O)c1cnccn1,inactive,
CSc1nc(SCC(=O)O)c2sc3nc(-c4ccccc4)c4c(c3c2n1)CCC4,inactive,
Cc1ccc2nc(NC(=O)c3ccc4ncsc4c3)sc2c1,inactive,
